These results are taken from PubChem BioAssay (NCI).

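In this assay, cells in 96-well plates receive the compound at five concentrations for 48 hours. Endpoints are linearly interpolated between the surrounding concentrations. Here, GI50 denotes the concentration required for 50% inhibition of growth. At the TGI there is no net growth.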

Common to all, as to experiment: NCI tumour cell line growth inhibition, 48 h
Test [1] has as its system NCI-H23 lung.
The subject of test [2] is SF-295 CNS.
Test [3] concerns TK-10 renal.
Test [4] has as its system SK-MEL-2 melanoma.
The subject of test [5] is M14 melanoma.
The test system of test [6] is UACC-62 melanoma.
Test [7] has as its system SK-OV-3 ovarian.
Test [8] concerns UO-31 renal.
Test [9] deals with T-47D breast.
Test [10] has as its system EKVX NSCLC.

In the case of `C[n+]1cc2cc3c(cc2c2ccccc21)OCO3`, the GI50 in [1] is 2.37 µM; in test [2], 3.17 µM; in test [3], 8.33 µM; in [4], 3.51 µM; in test [5], 16 µM; in [6], 3.97 µM. Also, the values for the GI50 in test [7], in test [8] and in test [9] were 7.96 µM, 27.8 µM and 2.95 µM, respectively. The TGI in [1] is 13.6 µM; in test [2] it was 30.3 µM; in test [3], 61.4 µM; in [4], 11.3 µM; in test [5], more than 100 µM; in test [6] it was 16.4 µM. Besides, the TGI in test [7] was more than 100 µM; in test [8], more than 100 µM; in [9], 14.4 µM.

Consider `C/C(=C1/N=C(c2ccccc2)OC1=O)c1ccccc1`, for which the TGI in test [1], in test [2], in [10], in test [3], in test [4] and in [5] was more than 100 µM each time. The TGI in test [6], in [7] and in test [9] was more than 100 µM in each case.

For `COc1cc2oc(-c3cccc(C(=O)Nc4ccc(C)cc4)c3)cc(=O)c2c(OC)c1OC`, the GI50 was 4.43 µM in test [1]; 1.63 µM in test [2]; 6.89 µM in [3]; 3.33 µM in test [4]; 0.503 µM in test [5]; 2.35 µM in test [6]. The GI50 in test [7] is 3.13 µM; in [8], 3.5 µM; in test [9], 1.94 µM. Further, the TGI was 51.4 µM in [1]; 3.56 µM in test [2]; more than 100 µM in test [3]; 9.55 µM in test [4]; 2.23 µM in test [5]; 6.42 µM in [6]. For the same compound, the TGI in test [7] is 68.4 µM; in test [8], more than 100 µM; in test [9], more than 100 µM.

`CC(=O)Oc1ccccc1C(=O)NCCC[Se]C#N`: the GI50 in [1] is 2.58 µM; in test [2], 1.89 µM; in test [3], 1.83 µM; in [4] it was 2.55 µM; in test [5] it was 1.82 µM; in test [7], 3.33 µM. Moreover, in test [9], the GI50 was 3.19 µM. In addition, the TGI in test [1] came out at 7.57 µM; in test [2], 3.67 µM; in [3] it was 3.82 µM; in test [4], 5.64 µM; in [5], 5.38 µM; in [7], 6.16 µM. Moreover, the TGI in test [9] was 17.8 µM.

`CC(=O)N1N=C(c2ccc(Nc3nc(Nc4ccc(F)cc4)nc(Nc4ccc(Cl)cc4)n3)cc2)CC1c1ccc(N(C)C)cc1` (configuration not stated): the GI50 in test [1] was 2.96 µM; in test [2], 9.73 µM; in test [10], 8.06 µM; in [3] it was 8.59 µM; in test [5], 3.05 µM; in test [6], 2.26 µM. The GI50 in [7] is 6.82 µM; in [8] it was 3.11 µM; in [9], 2.01 µM. The TGI in test [1] is 16.1 µM; in [2] it was 37.4 µM; in test [10], more than 90.9 µM; in [3], 31 µM; in test [5], 10.8 µM; in test [6], 7.79 µM. Moreover, the TGI in [7] is more than 31.2 µM; in test [8], 16.6 µM; in test [9], 16 µM.

Regarding `O=C(Nc1nc(-c2ccccc2)cs1)c1cc(O)c(O)c(O)c1`, the GI50 in test [1] is 4.36 µM; in test [2], 6.97 µM; in [3], 3.62 µM; in test [5], 7.9 µM; in test [6] it was 3.02 µM; in test [7], 12 µM. The results for the GI50 in [8] and in [9] were 0.605 µM and 2.34 µM, respectively. The TGI in test [1] was 51.5 µM; in test [2] it was 55.1 µM; in test [3] it was 59.4 µM; in [5], 44 µM; in test [6] it was 16.5 µM; in test [7], 41.9 µM. Moreover, the TGI in test [8] turned out to be 19.4 µM; in [9] it was 22.8 µM.

For `C[C@@H]1CC[C@@H]2[C@@H]1[C@H](OC(=O)c1ccc3ccccc3c1)[C@]1(C3CCCCC3)C[C@@H](OC(=O)CO)[C@@]2(C)O1`, the GI50 in [1] was 14.3 µM; in [2] it was 11.6 µM; in test [10], 11.4 µM; in test [3], 14.5 µM; in test [4], 15.3 µM; in [5], 13.2 µM. Moreover, the GI50 in test [6] is 14.3 µM; in test [7], 14.4 µM; in test [9], 3.33 µM. Also, the TGI in test [1] came out at 33.2 µM; in test [2] it was 25.3 µM; in [10] it was 26.7 µM; in test [3], 31.1 µM; in test [4], 30.8 µM; in [5], 30.2 µM. Besides, the TGI in test [6] turned out to be 28.5 µM; in test [7], 29 µM; in test [9], 15.1 µM.

On to `Cc1ccc(N(/C=C/C(=O)C(F)(F)F)CC(=O)c2ccc(Cl)c(Cl)c2)cc1`, for which the GI50 in [1] is 10.3 µM; in [2], 4.24 µM; in test [10], 3.54 µM; in test [3] it was 12.1 µM; in test [4], 3.26 µM; in test [5], 4.79 µM. The GI50 was 5.57 µM in test [6], 5.77 µM in test [8] and 12.2 µM in [9]. The TGI in test [1] is 21.9 µM; in test [2], 16.6 µM; in test [10], 18.9 µM; in test [3], 24.5 µM; in test [4], 16.1 µM; in [5], 18.6 µM. Besides, the TGI in [6] is 19 µM; in [8] it was 19.1 µM; in test [9], 25.8 µM.

`COc1ccc(C(=O)C/C(=N/NC(N)=S)C(=O)Nc2ccccc2)cc1`: the TGI in test [1], in test [2], in test [10], in test [3], in [4] and in test [5] was more than 100 µM each time. Moreover, the TGI in [6], in test [7] and in test [8] was more than 100 µM in each case.

With `CC(C)C[C@H]1C(=O)N2CCC[C@H]2[C@]2(O)O[C@](NC(=O)[C@@H]3C=C4c5cccc6[nH]c(Br)c(c56)C[C@H]4N(C)C3)(C(C)C)C(=O)N12`, the TGI in test [2], in test [10], in [3], in test [4], in test [5] and in [6] was more than 100 µM throughout. In addition, the TGI in test [7], in [8] and in [9] was more than 100 µM in each case.

Regarding `Cc1cc(Cl)ccc1N1C(=O)C(=O)C(c2nc3ccccc3o2)C(=O)C1=O`, the TGI in [1], in [2], in test [10], in [3], in test [4] and in [5] was more than 100 µM throughout. The TGI in test [6], in [7] and in [8] was more than 100 µM throughout.

Take `CC1NCCc2c1[nH]c1cc(O)ccc21` (configuration not stated): the TGI in test [1], in test [2], in test [10], in test [3], in [4] and in test [5] was more than 100 µM each time. The TGI in test [6], in [7] and in test [8] was more than 100 µM each time.

For `CCOC(=O)N1CCc2cc(OC)c(OC)cc2/C1=C/c1ccc(OC)c(OC)c1`, the TGI in test [1], in test [2], in test [10], in test [3], in [4] and in test [5] was more than 100 µM in each case. Besides, the TGI in test [6], in test [7] and in test [8] was more than 100 µM each time.

On to `N=C1N=C(N)S/C1=C\c1ccc2ncccc2c1`, for which the GI50 in [1], in test [2], in test [3], in test [4], in test [5] and in test [6] was more than 25 µM each time. Besides, the GI50 in test [7], in test [8] and in [9] was more than 25 µM in each case. Besides, the TGI in test [1], in [2], in test [3], in test [4], in [5] and in test [6] was more than 25 µM throughout. Moreover, the TGI in test [7], in test [8] and in test [9] was more than 25 µM in each case.

Consider `CN(C)CCC(/C=C/c1ccccc1)=N\Nc1ccc(Cl)cc1`, for which the TGI in test [1] came to 20.9 µM; in [2] it was 13.1 µM; in test [10], 11.4 µM; in test [3], 7.85 µM; in test [4] it was 4.4 µM; in [5] it was 12.5 µM. Moreover, the TGI in test [6] was found to be 4.95 µM; in test [7], 13.4 µM; in test [8], 4.24 µM.

Take `NC1=NCC(c2ccccn2)C1c1ccc(F)cc1` (configuration not stated): the TGI in [1], in test [2], in [10], in test [3], in test [4] and in [5] was more than 100 µM each time. The TGI in test [6], in test [7] and in test [8] was more than 100 µM each time.

Consider `Cc1cc(Cl)cc2c1NC(=O)C2(O)CC(=O)c1ccc(F)cc1` (configuration not stated), for which the TGI in [1], in test [2], in [10], in [3], in [4] and in [5] was more than 100 µM in each case. Also, the results for the TGI in test [6], in test [7] and in [8] were 42 µM, more than 100 µM and more than 100 µM, respectively.

Regarding `Clc1ccc(-c2nc(C(Cl)Cl)nc3cc(-c4ccccc4)nn23)cc1`, the GI50 in [1] is 0.947 µM; in test [2], 1.45 µM; in test [3], 2.23 µM; in test [4], more than 50 µM; in test [7], 1.38 µM; in [8] it was 2.04 µM. Further, in test [9], the GI50 is 1.73 µM. Further, the TGI in test [1] was 2.64 µM; in test [2], more than 50 µM; in [3], more than 50 µM; in [4] it was more than 50 µM; in test [7], 4.75 µM; in test [8], more than 50 µM. In test [9], this compound registered a TGI of more than 50 µM.

For `NC(=NCCO)c1ccc(N2CCCN(c3ccc(C(N)=NCCO)cc3)CC2)cc1`, the GI50 in test [1], in test [2], in test [3], in [5], in test [6] and in test [9] was more than 100 µM throughout. The TGI in test [1], in [2], in test [3], in test [5], in test [6] and in test [9] was more than 100 µM each time.

Turning to `O=[N+]([O-])c1ccc2nc3ccscc-3c2c1`, the TGI in test [1] is 70.2 µM; in test [2] it was more than 100 µM; in [10], more than 100 µM; in [3], more than 100 µM; in [4], 77.7 µM; in test [5], 32.4 µM. For the same compound, the TGI in test [6] was 65.6 µM; in test [7], 86.3 µM; in [8] it was more than 100 µM.

As to `Cc1cccc2cc3cccc(C(=O)NCCN(C)C)c3nc12`, the TGI in test [1] amounted to 1.17 µM; in [2] it was 1.74 µM; in test [10], 1.69 µM; in test [3], 7.88 µM; in test [4] it was 1.85 µM; in [5] it was 2.43 µM. Also, the results for the TGI in test [6], in test [7] and in test [8] were 0.386 µM, 0.619 µM and 0.552 µM, respectively.

As to `O=C1[C@@H]2C(c3ccncc3)=NO[C@@H]2C(=O)N1c1ccc(Cc2ccc(N3C(=O)[C@H]4C(c5ccncc5)=NO[C@H]4C3=O)cc2)cc1`, the TGI in test [1], in test [2], in [10], in test [3], in [4] and in test [5] was more than 100 µM each time. Further, the TGI in test [6], in [7] and in [8] was more than 100 µM throughout.
